Measured values taken from publication PMC3914206.

Legend:
Type in all cases: binding
Details in all cases: Compound Concentration 10 µM
panel of 442 kinases [1] = biological target: T1, panel of 442 kinases (Homo sapiens, UniProt P45984)
T1 construct: purchased KINOMEscan
Text: (§1) We assessed the selectivity of members of this scaffold using the KINOMEscan methodology across a near comprehensive panel of 442 kinases [[18,27]].

panel of 442 kinases [2] = biological target: T2, panel of 442 kinases (Homo sapiens, UniProt P51956)
T2 construct: purchased KINOMEscan
T2 sequence (P51956 1-506): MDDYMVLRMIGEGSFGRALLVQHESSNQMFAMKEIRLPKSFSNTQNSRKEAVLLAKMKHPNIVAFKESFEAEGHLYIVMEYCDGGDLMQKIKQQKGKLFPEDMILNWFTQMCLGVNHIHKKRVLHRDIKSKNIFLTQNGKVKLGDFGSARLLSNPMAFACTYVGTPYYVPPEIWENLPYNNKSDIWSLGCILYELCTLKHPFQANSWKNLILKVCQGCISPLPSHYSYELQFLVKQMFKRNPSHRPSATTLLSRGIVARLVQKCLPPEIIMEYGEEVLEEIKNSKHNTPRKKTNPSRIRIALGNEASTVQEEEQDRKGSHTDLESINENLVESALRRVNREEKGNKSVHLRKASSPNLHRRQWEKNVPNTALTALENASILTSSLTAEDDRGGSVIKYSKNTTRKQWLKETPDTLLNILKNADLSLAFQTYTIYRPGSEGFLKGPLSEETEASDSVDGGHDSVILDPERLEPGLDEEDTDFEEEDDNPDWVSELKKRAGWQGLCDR
Text: as §1

panel of 442 kinases [3] = biological target: T3, panel of 442 kinases (Homo sapiens, UniProt Q16513)
T3 construct: purchased KINOMEscan
Text: as §1

T1 sequence (P45984 whole entry): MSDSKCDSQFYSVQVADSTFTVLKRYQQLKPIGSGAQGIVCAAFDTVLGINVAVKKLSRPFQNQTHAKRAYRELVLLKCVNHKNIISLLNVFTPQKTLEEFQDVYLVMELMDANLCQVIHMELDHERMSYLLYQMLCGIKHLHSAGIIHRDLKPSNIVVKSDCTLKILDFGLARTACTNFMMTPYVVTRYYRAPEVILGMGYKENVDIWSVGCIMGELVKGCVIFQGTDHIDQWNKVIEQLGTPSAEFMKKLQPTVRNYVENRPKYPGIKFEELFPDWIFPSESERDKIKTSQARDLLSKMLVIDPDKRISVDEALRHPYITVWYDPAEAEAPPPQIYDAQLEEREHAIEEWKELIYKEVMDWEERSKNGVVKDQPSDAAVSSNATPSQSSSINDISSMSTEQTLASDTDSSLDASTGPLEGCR
T3 sequence (Q16513 whole entry): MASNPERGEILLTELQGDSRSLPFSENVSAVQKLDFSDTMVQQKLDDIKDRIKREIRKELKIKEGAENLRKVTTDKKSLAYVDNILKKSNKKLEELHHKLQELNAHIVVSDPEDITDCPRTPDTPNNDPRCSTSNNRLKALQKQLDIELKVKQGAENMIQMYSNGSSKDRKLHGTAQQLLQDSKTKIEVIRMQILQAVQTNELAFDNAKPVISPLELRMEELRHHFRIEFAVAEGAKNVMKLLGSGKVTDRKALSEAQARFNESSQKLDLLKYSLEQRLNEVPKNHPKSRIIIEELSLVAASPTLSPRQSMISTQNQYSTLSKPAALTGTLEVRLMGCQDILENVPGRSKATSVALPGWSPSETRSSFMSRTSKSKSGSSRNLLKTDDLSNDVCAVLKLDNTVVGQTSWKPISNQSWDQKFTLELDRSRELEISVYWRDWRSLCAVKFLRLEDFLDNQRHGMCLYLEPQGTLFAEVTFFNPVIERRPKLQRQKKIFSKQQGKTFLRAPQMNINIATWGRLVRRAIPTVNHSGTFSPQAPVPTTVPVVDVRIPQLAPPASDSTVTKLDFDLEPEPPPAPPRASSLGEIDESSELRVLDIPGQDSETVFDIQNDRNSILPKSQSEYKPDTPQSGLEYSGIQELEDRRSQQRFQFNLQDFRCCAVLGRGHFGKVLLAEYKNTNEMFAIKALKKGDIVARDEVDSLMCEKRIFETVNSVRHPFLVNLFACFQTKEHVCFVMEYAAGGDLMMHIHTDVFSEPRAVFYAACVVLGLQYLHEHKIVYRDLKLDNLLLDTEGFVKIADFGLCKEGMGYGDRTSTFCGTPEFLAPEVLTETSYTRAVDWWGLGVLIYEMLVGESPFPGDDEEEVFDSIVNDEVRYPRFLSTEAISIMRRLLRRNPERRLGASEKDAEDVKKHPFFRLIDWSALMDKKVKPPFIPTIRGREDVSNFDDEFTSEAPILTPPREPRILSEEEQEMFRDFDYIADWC

Row | Structure (SMILES) | KINOMEscan: JNK2 (panel of 442 kinases [1]) | KINOMEscan: NEK3 (panel of 442 kinases [2]) | KINOMEscan: PKN2 (panel of 442 kinases [3])
1 | COc1cc(C(=O)N2CCC(N3CCN(C)CC3)CC2)ccc1Nc1ncc2c(n1)N(C)c1ccccc1C(=O)N2C [15 (LRRK2-IN-1)] | 94 | 100 | 95
2 | COc1cc(C(=O)N2CCC(N3CCN(C)CC3)CC2)ccc1Nc1ncc2c(n1)N1CCc3cccc(c31)C(=O)N2C [Compound 24] | 42 | – | 82
3 | COc1cc(C(=O)N2CCC(N3CCN(C)CC3)CC2)ccc1Nc1ncc2c(n1)N(C1CCCC1)c1ccccc1C(=O)N2C [Compound 25, 11-cyclopentyl-2-((2-methoxy-4-(4-(4-methylpiperazin-1-yl)piperidine-1-carbonyl)phenyl)amino)-5-methyl-5H-benzo[e]pyrimido[5,4-b][1,4]diazepin-6(11H)-one] | 44 | 100 | 100
4 | CCOc1cc(C(=O)N2CCC(N3CCN(C)CC3)CC2)ccc1Nc1ncc2c(n1)N(C1CCCC1)c1ccccc1C(=O)N2C [Compound 26] | 63 | 83 | 100
